Consider 50 compounds from article PMC11995724, “Antibiotic target discovery by integrated phenotypic and activity-based profiling of electrophilic fragments” (Cell chemical biology, 2025).

Counter-ions that a name gives are not always drawn.

Usually viability stands for a read-out of living cells in per cent, often relative to untreated cells.

The series is described as follows: in vitro. As to conditions: human, hek293t cells.
Consider `CC(C)(C)C(=O)NCc1ccc(C(=O)CCl)s1` [10-P10, N-{[5-(2-chloroacetyl)thiophen-2-yl]methyl}-2,2-dimethylpropanamide], for which the viability at 48 h, 25 µM was determined as 12.3%.

As for `C=CC(=O)N1CCC(C(=O)NCC(O)c2cccc(Cl)c2)CC1` (centres unmarked) [3-M06, N-[2-(3-chlorophenyl)-2-hydroxyethyl]-1-(prop-2-enoyl)piperidine-4-carboxamide], the viability at 48 h, 25 µM came out at 98.1%.

In the case of `N#Cc1ccc(C(=O)CCl)cc1` [10-F10, 4-(2-chloroacetyl)benzonitrile], the viability at 48 h, 25 µM is 49%.

Turning to `NS(=O)(=O)c1cccc(N2C(=O)C=CC2=O)c1` [10-I05, 3-(2,5-dioxo-2,5-dihydro-1H-pyrrol-1-yl)benzene-1-sulfonamide], the viability at 48 h, 25 µM stood at 93.4%.

As for `C=CC(=O)Nc1cn(CCC)cn1` [3-B10, N-(1-propyl-1H-imidazol-4-yl)prop-2-enamide], the viability at 48 h, 25 µM came out at 91.1%.

For `Cc1ccc(CN(C(=O)CCl)C2CC2)o1` [6-E03, 2-chloro-N-cyclopropyl-N-[(5-methylfuran-2-yl)methyl]acetamide], the viability at 48 h, 25 µM stood at 0.647%.

Regarding `C=CC(=O)Nc1cccc(C(F)(F)CF)c1` [2-O12, N-[3-(1,1,2-trifluoroethyl)phenyl]prop-2-enamide], the viability at 48 h, 25 µM was 98.8%.

As for `CC(=O)Nc1ccsc1C=C(C#N)C(=O)Nc1ccc(F)cc1` [9-F14, 2-cyano-3-(3-acetamidothiophen-2-yl)-N-(4-fluorophenyl)prop-2-enamide], the viability at 48 h, 25 µM amounted to 98.4%.

`Cc1cc(CN(Cc2cnn(C)c2)C(=O)CCl)ccc1Cl` [5-G12, 2-chloro-N-[(4-chloro-3-methylphenyl)methyl]-N-[(1-methyl-1H-pyrazol-4-yl)methyl]acetamide]: the viability at 48 h, 25 µM is -0.0746%.

For `N#CC(=Cc1cccs1)C(=O)Nc1ccc(C(=O)O)cc1` [8-A04, 4-[2-cyano-3-(thiophen-2-yl)prop-2-enamido]benzoic acid], the viability at 48 h, 25 µM came to 71.7%.

Regarding `C=CC(=O)Nc1ccc(C(=O)NC2CCN(C(C)C)C2=O)cc1` (centres unmarked) [3-C10, N-[2-oxo-1-(propan-2-yl)pyrrolidin-3-yl]-4-(prop-2-enamido)benzamide], the viability at 48 h, 25 µM is 60.6%.

In the case of `Cc1ccc(N2CCCC2CNC(=O)CCl)cc1` (centres unmarked) [7-H14, 2-chloro-N-{[1-(4-methylphenyl)pyrrolidin-2-yl]methyl}acetamide], the viability at 48 h, 25 µM stood at 4.76%.

Turning to `CC(Cl)C(=O)N1C2CCC1CC(c1ccnn1C)C2` (centres unmarked) [7-O15, 2-chloro-1-[3-(1-methyl-1H-pyrazol-5-yl)-8-azabicyclo[3.2.1]octan-8-yl]propan-1-one], the viability at 48 h, 25 µM came to 88.6%.

In the case of `O=C(CCl)NCCc1ccc(Cl)cc1Cl` [6-M16, 2-chloro-N-[2-(2,4-dichlorophenyl)ethyl]acetamide], the viability at 48 h, 25 µM amounted to 1.06%.

Consider `O=C(CCl)NC1CCN(c2ccncc2)CC1` [5-P09, 2-chloro-N-[1-(pyridin-4-yl)piperidin-4-yl]acetamide hydrochloride], for which the viability at 48 h, 25 µM was 48.1%.

As to `CC(Cl)C(=O)C=C1N(C)c2ccccc2C1(C)C` (centres unmarked) [10-J22, 3-chloro-1-(1,3,3-trimethyl-2,3-dihydro-1H-indol-2-ylidene)butan-2-one], the viability at 48 h, 25 µM was 5.56%.

On to `C=CC(=O)NC1CCN(Cc2ccc(Cl)cc2)CC1` [1-N08, N-{1-[(4-chlorophenyl)methyl]piperidin-4-yl}prop-2-enamide], for which the viability at 48 h, 25 µM was 101%.

Turning to `COc1ccc(C(=O)CCl)c(OC)c1` [10-G18, 2-chloro-1-(2,4-dimethoxyphenyl)ethan-1-one], the viability at 48 h, 25 µM turned out to be 66.7%.

With `N#CC(=Cc1cccs1)C(=O)Nc1ccccc1Cl` [9-L11, N-(2-chlorophenyl)-2-cyano-3-(thiophen-2-yl)prop-2-enamide], the viability at 48 h, 25 µM was 112%.

Regarding `C=CC(=O)Nc1ccc(C(=O)N2C[C@H](O)C[C@H]2C(=O)OC)cc1` [2-O21, methyl (2S,4R)-4-hydroxy-1-[4-(prop-2-enamido)benzoyl]pyrrolidine-2-carboxylate], the viability at 48 h, 25 µM came out at 145%.

On to `C=CC(=O)N1CCCc2c(OCC(N)=O)cccc21` [3-D22, 2-{[1-(prop-2-enoyl)-1,2,3,4-tetrahydroquinolin-5-yl]oxy}acetamide], for which the viability at 48 h, 25 µM amounted to 95.2%.

With `CN(CC(=O)NCc1ccco1)C(=O)CCl` [4-A18, 2-chloro-N-({[(furan-2-yl)methyl]carbamoyl}methyl)-N-methylacetamide], the viability at 48 h, 25 µM stood at 0.0249%.

As for `C=CC(=O)NCc1nc2ccccc2n1C1CC1` [2-N03, N-[(1-cyclopropyl-1H-1,3-benzodiazol-2-yl)methyl]prop-2-enamide], the viability at 48 h, 25 µM worked out at 69.4%.

As to `CC(C)Cc1ccc(C(C)NC(=O)CCl)cc1` (centres unmarked) [4-H03, 2-chloro-N-{1-[4-(2-methylpropyl)phenyl]ethyl}acetamide], the viability at 48 h, 25 µM was 0.63%.

With `C=CC(=O)N1CCC(Cc2ccnn2C)CC1` [2-C19, 1-{4-[(1-methyl-1H-pyrazol-5-yl)methyl]piperidin-1-yl}prop-2-en-1-one], the viability at 48 h, 25 µM turned out to be 74.8%.

With `O=C(CCl)Nc1ccc(OCc2ccccc2)cc1` [6-K07, N-[4-(benzyloxy)phenyl]-2-chloroacetamide], the viability at 48 h, 25 µM worked out at 0.0552%.

For `CC(Cl)C(=O)NC1CCC(C)(C)c2ccccc21` (centres unmarked) [6-H21, 2-chloro-N-(4,4-dimethyl-1,2,3,4-tetrahydronaphthalen-1-yl)propanamide], the viability at 48 h, 25 µM was 100%.

As for `O=C(CCl)NCc1cc([N+](=O)[O-])ccc1O` [4-A05, 2-chloro-N-[(2-hydroxy-5-nitrophenyl)methyl]acetamide], the viability at 48 h, 25 µM worked out at 1.29%.

Regarding `CC(Cl)C(=O)c1ccc(Cl)cc1` (centres unmarked) [10-O04, 2-chloro-1-(4-chlorophenyl)propan-1-one], the viability at 48 h, 25 µM was 106%.

For `C=CC(=O)NCC1SCCS1` [1-C03, N-[(1,3-dithiolan-2-yl)methyl]prop-2-enamide], the viability at 48 h, 25 µM is 87.6%.

Take `CC(Cl)C(=O)N1CCCCCC1` (centres unmarked) [5-F11, 1-(azepan-1-yl)-2-chloropropan-1-one]: the viability at 48 h, 25 µM was 105%.

On to `C=CC(=O)NCCn1cnc2ccsc2c1=O` [2-N15, N-(2-{4-oxo-3H,4H-thieno[3,2-d]pyrimidin-3-yl}ethyl)prop-2-enamide], for which the viability at 48 h, 25 µM came out at 66%.

Consider `C=CC(=O)N(CC)Cc1nc2ccsc2c(=O)[nH]1` [3-P16, N-ethyl-N-({4-oxo-3H,4H-thieno[3,2-d]pyrimidin-2-yl}methyl)prop-2-enamide], for which the viability at 48 h, 25 µM came to 78.2%.

Consider `C=CC(=O)NC1(C(N)=O)Cc2ccccc2C1` [2-D15, 2-(prop-2-enamido)-2,3-dihydro-1H-indene-2-carboxamide], for which the viability at 48 h, 25 µM worked out at 69.7%.

Consider `C=CC(=O)N1CCC(O)(C(F)(F)C(N)=O)C1` (centres unmarked) [2-C16, 2,2-difluoro-2-[3-hydroxy-1-(prop-2-enoyl)pyrrolidin-3-yl]acetamide], for which the viability at 48 h, 25 µM was determined as 98.2%.

As to `CC(c1ccc(C(F)(F)F)cc1F)N(C)C(=O)CCl` (centres unmarked) [7-P18, 2-chloro-N-{1-[2-fluoro-4-(trifluoromethyl)phenyl]ethyl}-N-methylacetamide], the viability at 48 h, 25 µM worked out at 0.35%.

In the case of `CC(Cl)C(=O)N1CCN(C(C)c2cccc(C#N)c2)CC1` (centres unmarked) [7-P22, 3-{1-[4-(2-chloropropanoyl)piperazin-1-yl]ethyl}benzonitrile], the viability at 48 h, 25 µM is 66.4%.

`Cc1c(C#N)c(NC(=O)CCl)n(C2CCCCC2)c1C` [4-N18, 2-chloro-N-(3-cyano-1-cyclohexyl-4,5-dimethyl-1H-pyrrol-2-yl)acetamide]: the viability at 48 h, 25 µM turned out to be 0.0875%.

As to `C=CC(=O)N(C)Cc1cn(C)nc1C(C)C` [3-F15, N-methyl-N-{[1-methyl-3-(propan-2-yl)-1H-pyrazol-4-yl]methyl}prop-2-enamide], the viability at 48 h, 25 µM stood at 80.7%.

As to `CC(Cl)C(=O)NC(c1ccc(F)cc1)c1cnn(C)c1` (centres unmarked) [7-C19, 2-chloro-N-[(4-fluorophenyl)(1-methyl-1H-pyrazol-4-yl)methyl]propanamide], the viability at 48 h, 25 µM is 93.1%.

For the compound `CC(C)C(C(=O)O)N1C(=O)C=CC1=O` (centres unmarked) [10-I22, 2-(2,5-dioxo-2,5-dihydro-1H-pyrrol-1-yl)-3-methylbutanoic acid], the viability at 48 h, 25 µM was determined as 106%.

As for `C=CC(=O)N(C)CC(=O)N1CCc2cc(OC)c(OC)cc2C1C` (centres unmarked) [3-C04, N-[2-(6,7-dimethoxy-1-methyl-1,2,3,4-tetrahydroisoquinolin-2-yl)-2-oxoethyl]-N-methylprop-2-enamide], the viability at 48 h, 25 µM worked out at 84.6%.

`COc1ccc(C=C(C#N)C(=O)NCc2ccco2)cc1` [8-J12, 2-cyano-N-[(furan-2-yl)methyl]-3-(4-methoxyphenyl)prop-2-enamide]: the viability at 48 h, 25 µM was 112%.

Regarding `CN(C(=O)CCl)C(c1ccc(Cl)cc1)C(F)(F)F` (centres unmarked) [7-J16, 2-chloro-N-[1-(4-chlorophenyl)-2,2,2-trifluoroethyl]-N-methylacetamide], the viability at 48 h, 25 µM was found to be 0.718%.

In the case of `N#CC(=Cc1cnn(Cc2ccccc2)c1)C(=O)Nc1nccs1` [9-M03, 3-(1-benzyl-1H-pyrazol-4-yl)-2-cyano-N-(1,3-thiazol-2-yl)prop-2-enamide], the viability at 48 h, 25 µM was found to be 111%.

With `COc1ccc2[nH]c3c(c2c1)CCCC3NC(=O)CCl` (centres unmarked) [5-G07, 2-chloro-N-(6-methoxy-2,3,4,9-tetrahydro-1H-carbazol-1-yl)acetamide], the viability at 48 h, 25 µM was found to be 0.129%.

Turning to `C=CC(=O)N(C)CC(=O)Nc1ccc(N2CCOCC2=O)c(C)c1` [3-J07, N-methyl-N-({[3-methyl-4-(3-oxomorpholin-4-yl)phenyl]carbamoyl}methyl)prop-2-enamide], the viability at 48 h, 25 µM worked out at 51.4%.

Regarding `C=CC(=O)NCc1cnc2ccsc2c1` [2-D11, N-({thieno[3,2-b]pyridin-6-yl}methyl)prop-2-enamide], the viability at 48 h, 25 µM worked out at 74.3%.

For `C=CC(=O)NCC1CCN(S(=O)(=O)C(F)(F)F)CC1` [1-A03, N-[(1-trifluoromethanesulfonylpiperidin-4-yl)methyl]prop-2-enamide], the viability at 48 h, 25 µM turned out to be 83.3%.

With `C=CC(=O)N(CC)CC(=O)N1CCCC(c2nccn2C)C1` (centres unmarked) [3-F03, N-ethyl-N-{2-[3-(1-methyl-1H-imidazol-2-yl)piperidin-1-yl]-2-oxoethyl}prop-2-enamide], the viability at 48 h, 25 µM came out at 106%.
